These results are taken from patent US6465461B1, “Triazine compounds for treatment of CNS disorders” (SmithKline Beecham Corporation, priority 1997, dated 2002).

One data set relates to male Han Wistar rats. Put plainly: Rat maximal electroshock test (MES). It counts as in vivo. The settings on record: oral, 2 hr prior to test; for ED50: Rattus norvegicus, suspension in 0.25% methylcellulose, 200 mA, 200 millisec, read-out: MES ED50 (hind limb extension); for therapeutic index (ratio of the ataxia ED50 and MES ED50): rat. Here is the method: For example, male Han Wistar rats (150-200 grms) were dosed orally with a suspension of the test compound in 0.25% methylcellulose 2 hr prior to test. A visual observation is carried out just prior to testing for the presence of ataxia. Using auricular electrodes a current of 200 mA, duration 200 millisec, is applied and the presence or absence of hind limb extension noted.
In general terms: In the maximal electroshock model the usual endpoint is tonic extension of the hind limbs.

For a further data set, the system named is rat. Put plainly: Rat intraplantar carrageenan model of hyperalgesia and inflammation. It counts as in vivo. Particulars: oral; for ED50: Rattus norvegicus, 30 minutes prior to carrageenan (100 μl of 2% intraplantar), read at three hours, read-out: ED50 for inhibition of the carrageenan-induced reduction in weight bearing. The procedure: Three hours after intraplantar carrageenan administration (100 μl of 2%) in the rat there is a reduction in weight bearing on the inflamed paw and an increase in paw volume consistent with acute hyperalgesia and inflammation.

Data set [1] concerns the target recombinant human brain type IIA Na+ channel expressed in Chinese hamster ovary cells (Homo sapiens, UniProt Q99250). Put plainly: Whole-cell voltage-clamp on voltage-gated sodium channels.
A further data set concerns mouse. Put plainly: Mouse pentylenetetrazol infusion test. Type of data set: in vivo. The settings on record: 1 h, read-out: ED50 in pentylenetetrazol infusion test (time to second twitch).
A further data set concerns Male C57BL/6 mice. Put plainly: Mouse MPTP induced neurotoxicity (striatal dopamine depletion). It counts as in vivo. The settings on record: 30 minutes before each MPTP injection, striata seven days after MPTP. The procedure: The mouse MPTP model is generally used as a model of Parkinson's disease.
Male C57BL/6 mice received four intraperitoneal injections of MPTP.HCl (15 mg of free base per kg; Research Biochemicals) in saline at 2 hour intervals. Control mice received saline only. The test-compound was administered as four subcutaneous injections in olive oil at 2 hour intervals, 30 minutes before each MPTP injection.
Seven days after MPTP injection the mice were sacrificed and the striata dissected out, immediately frozen, and stored at −80° C. until analysis. On the day of assay issue samples were sonicated in 10 volume (wt./vol.) of 0.1 M perchloric acid containing 1.9 mM sodium hydrosulfite and 1.6 mg/ml DBA-HBr. After centrifugation (2800 g, 10 min at room temperature) and filtration (pore size 0.5 μm, Millipore), the supernatant was transferred to a vial and placed in the automatic sampler (M231XL, Gilson). Dopamine content was measured by high performance liquid chromatography. A compound of formula (I) produced 75% protection against dopamine depletion when dosed at 3 mg/kg (×4) and 98% protection when dosed at 10 mg/kg (×4).

Chain of recombinant human brain type IIA Na+ channel expressed in Chinese hamster ovary cells (Q99250 whole entry, the tested form may be a part): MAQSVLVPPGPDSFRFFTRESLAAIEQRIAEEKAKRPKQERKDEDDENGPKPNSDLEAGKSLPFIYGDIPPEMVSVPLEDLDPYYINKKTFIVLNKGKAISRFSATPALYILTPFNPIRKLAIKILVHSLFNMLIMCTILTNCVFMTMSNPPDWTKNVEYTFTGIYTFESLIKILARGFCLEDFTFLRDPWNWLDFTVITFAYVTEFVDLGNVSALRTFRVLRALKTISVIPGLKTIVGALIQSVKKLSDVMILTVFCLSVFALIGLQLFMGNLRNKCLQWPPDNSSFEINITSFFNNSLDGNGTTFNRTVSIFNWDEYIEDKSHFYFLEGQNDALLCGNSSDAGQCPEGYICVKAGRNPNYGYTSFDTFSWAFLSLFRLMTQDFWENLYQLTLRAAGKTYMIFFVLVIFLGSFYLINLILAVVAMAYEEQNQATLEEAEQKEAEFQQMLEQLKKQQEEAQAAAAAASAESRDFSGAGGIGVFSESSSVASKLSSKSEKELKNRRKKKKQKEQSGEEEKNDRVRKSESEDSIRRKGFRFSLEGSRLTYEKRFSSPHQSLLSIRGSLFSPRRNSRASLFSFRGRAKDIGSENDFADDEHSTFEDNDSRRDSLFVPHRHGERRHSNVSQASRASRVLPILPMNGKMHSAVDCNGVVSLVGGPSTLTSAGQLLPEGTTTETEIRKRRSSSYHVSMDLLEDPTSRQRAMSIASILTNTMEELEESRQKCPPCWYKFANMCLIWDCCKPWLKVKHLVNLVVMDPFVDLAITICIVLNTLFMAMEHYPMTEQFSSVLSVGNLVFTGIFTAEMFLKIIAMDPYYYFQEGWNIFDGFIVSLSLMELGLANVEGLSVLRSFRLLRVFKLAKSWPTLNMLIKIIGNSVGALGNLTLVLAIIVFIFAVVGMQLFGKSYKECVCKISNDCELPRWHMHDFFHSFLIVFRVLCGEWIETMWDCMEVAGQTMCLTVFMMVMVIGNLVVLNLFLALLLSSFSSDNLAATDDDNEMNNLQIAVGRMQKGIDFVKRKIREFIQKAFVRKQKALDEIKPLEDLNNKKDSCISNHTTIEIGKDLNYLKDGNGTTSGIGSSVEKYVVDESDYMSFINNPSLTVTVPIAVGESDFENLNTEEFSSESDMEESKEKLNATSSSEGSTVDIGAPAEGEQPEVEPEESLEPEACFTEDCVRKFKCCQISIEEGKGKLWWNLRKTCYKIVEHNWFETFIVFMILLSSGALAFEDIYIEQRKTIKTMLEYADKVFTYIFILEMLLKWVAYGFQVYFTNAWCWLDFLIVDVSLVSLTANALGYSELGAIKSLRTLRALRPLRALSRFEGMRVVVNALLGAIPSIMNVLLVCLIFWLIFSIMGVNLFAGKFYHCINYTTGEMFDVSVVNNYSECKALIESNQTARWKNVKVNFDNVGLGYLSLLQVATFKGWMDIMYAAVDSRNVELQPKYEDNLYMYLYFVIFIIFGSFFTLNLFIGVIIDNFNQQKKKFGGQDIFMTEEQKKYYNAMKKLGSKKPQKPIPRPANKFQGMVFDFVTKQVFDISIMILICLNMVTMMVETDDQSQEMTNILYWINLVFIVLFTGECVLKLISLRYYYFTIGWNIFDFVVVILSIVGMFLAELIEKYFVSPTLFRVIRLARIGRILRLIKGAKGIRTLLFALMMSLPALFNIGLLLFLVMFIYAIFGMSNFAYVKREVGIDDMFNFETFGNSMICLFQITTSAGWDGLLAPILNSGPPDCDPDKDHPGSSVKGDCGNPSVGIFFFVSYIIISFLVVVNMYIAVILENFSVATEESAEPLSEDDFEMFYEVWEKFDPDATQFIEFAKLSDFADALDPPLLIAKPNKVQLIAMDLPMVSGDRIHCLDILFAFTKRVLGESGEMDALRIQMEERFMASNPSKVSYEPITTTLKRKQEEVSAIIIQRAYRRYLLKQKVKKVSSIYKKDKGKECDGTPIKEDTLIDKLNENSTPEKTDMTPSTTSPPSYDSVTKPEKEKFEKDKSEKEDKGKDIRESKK

By ED50 is commonly meant the dose that gives a 50% effect, or the effect in half of the subjects. The IC50 is the concentration needed to halve the response being measured. For the molecule `Nc1ncnnc1-c1cc(Cl)cc(Cl)c1Cl` [compound of formula (I), 5-amino-6-[2,3,5-trichlorophenyl]-1,2,4-triazine], the results for the median effective dose (ED50) with male Han Wistar rats, in the data set with rat and in the data set on mouse were 1.7 mg/kg, 7.5 mg/kg and 3.8 mg/kg, respectively. Moreover, the “therapeutic index (ratio of the ataxia ED50 and MES ED50)” value in the data set on male Han Wistar rats is listed as 23.7. Also, the “reduction in paw volume (anti-inflammatory activity)” value in the data set with rat (30 mg/kg, 30 minutes prior to carrageenan) was 50%. Besides, the IC50 in data set [1] came to 785 µM. Besides, the “state selectivity (potency at inactivated state versus resting state)” value in data set [1] is “approximately 70 fold”. Besides, the results for the “protection against dopamine depletion” value with Male C57BL/6 mice (3 mg/kg (×4) subcutaneous) and in the data set on Male C57BL/6 mice (10 mg/kg (×4) subcutaneous) were 75% and 98%, respectively.
Take `Nc1nnc(-c2cccc(Cl)c2Cl)c(N)n1` [lamotrigine, 3,5diamino-6-(2,3dichlorophenyl)-1,2,4-triazine, reference compound]: the results for the median effective dose (ED50) with male Han Wistar rats, with rat and in the data set on mouse were 6.1 mg/kg, 23.5 mg/kg and 8.4 mg/kg, respectively. Moreover, in the data set with male Han Wistar rats, the “therapeutic index (ratio of the ataxia ED50 and MES ED50)” value came to 3.3. Also, in data set [1], the “state selectivity (potency at inactivated state versus resting state)” value was “approximately 30 fold”.
